Assay results: patent US20110014669A1, “Production of 1,4 Butanediol in a Microorganism” (Microbia, Inc., priority 2009, published 2011)
Read-outs that look alike come from different tables or passages of the source.

Columns and labels:
[1] = tested on: Pseudomonas putida (ATCC 700801)
Experimental: (§4) For each experiment, 50 mL of media was filter-sterilized before adding to pre-sterilized 250 mL triple baffled shake flasks. […] Each strain was grown in four different shake flasks.
(§5) Inocula were freshly grown on agar plates, cotton swabbed into a sterile Falcon® tube containing the same medium used in the shake flask and mixed well. The cell suspension was then inoculated into the prepared shake flasks to initiate the growth evaluation. The growth for each strain was monitored by measuring the OD (at 660 nm) and pH over the time course. If the medium contained glucose, such as Difco® Yeast Malt medium (YM), glucose concentration was monitored by using a YSI 2700 Select Biochemistry Analyzer.
(§6) Since different media and growth conditions were used, results were expressed as % of growth where the control, no BDO flask, represented 100% growth.

[2] = tested on: Zymomonas mobilis (ATCC 31821); details: 90 g/L and 135 g/L of BDO
Experimental: as §4, §5, §6

[3] = tested on: Zygosaccharomyces bailii (ATCC 60594)
[4] = tested on: Corynebacterium glutamicum (ATCC 13032); details: FIG. 12A
Experimental: as §4, §5, §6

[5] = tested on: S. cerevisiae strains (CEN.PK and Fermentis); details: 135 g/L of BDO
Experimental: as §4, §5, §6

[6] = tested on: Yarrowia lipolytica (ATCC 20228)
4-hydroxybutanal = test: Enzyme assay, oxidoreductase (step A6), cell lysates; format: biochemical; set-up: key: +: measureable activity detected in the assay; −: no measurable activity detected in the assay; details: BDO biosynthetic pathway step A6
Experimental: Enzyme expression and crude lysate preparation. The enzymatic activity of each candidate enzyme is evaluated, first in E. coli and subsequently in C. glutamicum. It will be apparent to one of skill in the art that the expression and lysate preparations may need to be modified depending on the host cell and recombinant gene of interest.
E. coli: E. coli strains transformed with expression clones, for example, pUC18 or MB4124 based clones having a medium strong constitutive promoter regulating the recombinant gene of interest, are grown aerobically in LB medium (Difco) containing the appropriate antibiotic(s). At an OD600 of 0.5, IPTG is added to a final concentration of 0.25 mM. The cultures are grown to a final OD600 of 1.5 at which time the cells are collected and harvested by centrifugation. Cell pellets are resuspended in BugBuster (Novagen) reagent containing benzonase and lysozyme. Alternatively, E. coli strains transformed with expression clones, are grown overnight aerobically at 37° C. in BHI containing the appropriate antibiotic(s). 300 μL of fresh overnight culture is used to inoculate 2.7 mL BHI containing 0.25 mM IPTG and the appropriate antibiotic. The cultures are grown aerobically for 4-5 hours at 37° C. at which time the cells are collected and harvested by centrifugation. Cell pellets are frozen at −80° C. for at least 15 minutes, then thawed and resuspended in BugBuster (Novagen) reagent. Lysis and lysate collection are performed according to the manufacturer's instructions and, for example, may involve use of a sonicator and/or French press. Cleared lysates are stored on ice until enzyme assays are performed. […]
Protein Assays. Protein concentrations in lysates are determined according to the methods of Bradford et al. (Anal. Biochem. 72:248-254 [1976]) or by the method of Smith et al. (Anal. Biochem. 150(1):76-85 [1985]) and lysates are assayed according to the methods below. […]

[7] = tested on: 3-methyl-2-oxopentanoate (3-MOP); test: Kinetics of purified His-tagged KdcAL1 on 3-MOP (aldehyde dehydrogenase linked reaction); format: biochemical; details: substrate 3-MOP; purified His-tagged enzyme
Experimental: (§1) Aldehyde Dehydrogenase linked reaction: In another example of a coupled assay, the decarboxylation of a substrate is linked to the activity of an aldehyde dehydrogenase (Sigma catalog number A6338) reaction that converts the aldehyde product to a carboxylic acid with the concomitant reduction of NAD+. The overall activity of the coupled reactions is assessed spectrophotometrically by measuring the increase in absorbance at 340 nm which corresponds to the NAD+ reduction. One enzyme unit is defined as the amount of enzyme that catalyzes the decarboxylation of 1 μmol of substrate per minute.
(§2) Standard molecular biology techniques were used to create an E. coli expression construct encoding KdcAL1 having three histidine (His) residues attached to its C-terminus. This His-tagged enzyme was over-expressed in E. coli, purified and assayed to assess its activity towards a natural substrate, 3-methyl-2-oxopentanoate (3-MOP) and its BDO pathway substrate, 5-hydroxy-2-oxopentanoate (5-HOP). The purified enzyme was assayed as described in example 3 above (step A5, Aldehyde dehydrogenase linked reaction). […] This Vmax is about 10 times lower than the rate of 3-MOP activity.

[8] = tested on: 5-hydroxy-2-oxopentanoate; test: In vitro substrate conversion assay, step A5; format: biochemical; set-up: key: +: measureable activity detected in the assay; −: no measurable activity detected in the assay; details: BDO biosynthetic pathway step A5
Experimental: In Vitro Substrate Conversion. Most of the enzyme assays described above are based on recording changes in absorbance at a given wavelength. In addition to such spectrophotometric readouts, these assays can also be analyzed by more direct methods using an endpoint assay where the reaction is terminated after a given period of time and the mixture is analyzed via HPLC or LC-MS methods.
(§3) The aldehyde dehydrogenase linked reaction was used for step A5.

[9] = tested on: 5-hydroxy-2-oxopentanoate; test: Enzyme assay, decarboxylase (step A5), aldehyde dehydrogenase linked reaction; format: biochemical; set-up: key: +: measureable activity detected in the assay; −: no measurable activity detected in the assay; details: BDO biosynthetic pathway step A5
In short: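 Crude lysates of E. coli or C. glutamicum expressing the candidate decarboxylase (0.25 mM IPTG induction) were assayed against vector-only control lysates, using natural substrate and pathway metabolite. Decarboxylation was coupled to aldehyde dehydrogenase converting the aldehyde product to acid with NAD+ reduction, followed as absorbance increase at 340 nm.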

[10] = tested on: 5-hydroxy-2-oxopentanoate (5-HOP); test: Kinetics of purified His-tagged KdcAL1 on 5-HOP (aldehyde dehydrogenase linked reaction); format: biochemical
Experimental: as §1, §2

[11] = tested on: 5-hydroxy-2-oxopentanoate; test: Bioconversion (feeding) assay, step A5; format: cell-based; set-up: key: +: measureable activity detected in the assay; −: no measurable activity detected in the assay; details: BDO biosynthetic pathway step A5
Experimental: Bioconversion assays. The activity of a candidate enzyme towards a given substrate can also be evaluated in vivo using a simple feeding assay. A strain expressing the candidate enzyme is grown in the presence of the substrate for which activity is desired. Samples of the culture are removed periodically and the cells are removed via centrifugation. The culture supernatant is then analyzed (e.g., by LC-MS) to determine how much of the substrate has been removed and how much of a given product is present.
as §3

[12] = 90 g/L and 135 g/L of BDO, loss of cell viability

Molecule: OCCCCO [BDO, 1,4-butanediol]
- cell density in the presence of BDO ([1]; 20 g/L of BDO, relative to no-BDO control): approximately twice of the control
- growth in the presence of BDO ([1]; 90 g/L and 135 g/L BDO, FIG. 12B): grew poorly
- growth in the presence of BDO [2]: grew better than the rest of strains
- growth in the presence of BDO ([3]; 20 g/L of BDO): able to grow
- growth in the presence of BDO [3, 12]: completely inhibited growth
- growth in the presence of BDO ([4]; 90 g/L and 135 g/L of BDO): grew better than the rest of strains
- growth in the presence of BDO ([4]; 135 g/L BDO, compared with Z. mobilis): grew better than Z. mobilis
- tolerance to BDO [5]: greater tolerance than E. coli
- growth in the presence of BDO ([6]; 20 g/L of BDO): able to grow
- growth in the presence of BDO [6, 12]: completely inhibited growth

B1: DhaTCf: Enzyme candidate for BDO biosynthetic pathway step A6, SEQ ID NO. 48 (protein, listed as Citrobacter freundii)
chain: MSYRMFDYLVPNVNFFGPNAISVVGERCKLLGGKKALLVTDKGLRAIKDGAVDKTLTHLREAGIDVVVFDGVEPNPKDTNVRDGLEVFRKEHCDIIVTVGGGSPHDCGKGIGIAATHEGDLYSYAGIETLTNPLPPIVAVNTTAGTASEVTRHCVLTNTKTKVKFVIVSWRNLPSVSINDPLLMLGKPAPLTAATGMDALTHAVEAYISKDANPVTDAAAIQAIRLIARNLRQAVALGSNLKARENMAYASLLAGMAFNNANLGYVHAMAHQLGGLYDMPHGVANAVLLPHVARYNLIANPEKFADIAEFMGENTDGLSTMDAAELAIHAIARLSADIGIPQHLRDLGVKEADFPYMAEMALKDGNAFSNPRKGNEKEIAEIFRQAF
- Enzyme Assay (4-hydroxybutanal): −

B2: AdhBZm: Enzyme candidate for BDO biosynthetic pathway step A6, SEQ ID NO. 50 (protein, listed as Zymomonas mobilis)
chain: MASSTFYIPFVNEMGEGSLEKAIKDLNGSGFKNALIVSDAFMNKSGVVKQVADLLKAQGINSAVYDGVMPNPTVTAVLEGLKILKDNNSDFVISLGGGSPHDCAKAIALVATNGGEVKDYEGIDKSKKPALPLMSINTTAGTASEMTRFCIITDEVRHVKMAIVDRHVTPMVSVNDPLLMVGMPKGLTAATGMDALTHAFEAYSSTAATPITDACALKAASMIAKNLKTACDNGKDMPAREAMAYAQFLAGMAFNNASLGYVHAMAHQLGGYYNLPHGVCNAVLLPHVLAYNASVVAGRLKDVGVAMGLDIANLGDKEGAEATIQAVRDLAASIGIPANLTELGAKKEDVPLLADHALKDACALTNPRQGDQKEVEELFLSAF
- Enzyme Assay (4-hydroxybutanal): +

B3: KdcALl: Branched-chain alpha-keto acid decarboxylase from Lactococcus lactis, step A5 enzyme candidate, SEQ ID NO. 36; His-tagged when purified (protein, listed as Lactococcus lactis)
chain: MYTVGDYLLDRLHELGIEEIFGVPGDYNLQFLDQIISREDMKWIGNANELNASYMADGYARTKKAAAFLTTFGVGELSAINGLAGSYAENLPVVEIVGSPTSKVQNDGKFVHHTLADGDFKHFMKMHEPVTAARTLLTAENATYEIDRVLSQLLKERKPVYINLPVDVAAAKAEKPALSLEKESSTTNTTEQVILSKIEESLKNAQKPVVIAGHEVISFGLEKTVTQFVSETKLPITTLNFGKSAVDESLPSFLGIYNGKLSEISLKNFVESADFILMLGVKLTDSSTGAFTHHLDENKMISLNIDEGIIFNKVVEDFDFRAVVSSLSELKGIEYEGQYIDKQYEEFIPSSAPLSQDRLWQAVESLTQSNETIVAEQGTSFFGASTIFLKSNSRFIGQPLWGSIGYTFPAALGSQIADKESRHLLFIGDGSLQLTVQELGLSIREKLNPICFIINNDGYTVEREIHGPTQSYNDIPMWNYSKLPETFGATEDRVVSKIVRTENEFVSVMKEAQADVNRMYWIELVLEKEDAPKLLKKMGKLFAEQNK
modifications: His-tag when purified
- Km [7]: 1.3 mM
- In Vitro Substrate Conversion Assay [8]: +
- Enzyme Assay [9]: +
- Vmax for 5-HOP lower than the rate of 3-MOP activity ([10]; 5-HOP versus 3-MOP): about 10 times
- Km ([10]; substrate 5-HOP, purified His-tagged enzyme): 49 mM
- Vmax ([10]; substrate 5-HOP, purified His-tagged enzyme, FIG. 24): approximately 0.15 U/mg
- Bioconversion Assay [11]: +
